Reference: ChEMBL document CHEMBL4000174, “Synthesis and antitumor activity of novel substituted uracil-1'(N)-acetic acid ester derivatives of 20(S)-camptothecins” (Eur J Med Chem, 2017)

Assays:
[1] = test system: A549; assay: Antiproliferative activity against human A549 cells after 96 hrs by MTT assay; type: functional, cell-based; conditions: A549, 96 h
[2] = test system: HCT-8; assay: Antiproliferative activity against human HCT8 cells after 96 hrs by MTT assay; type: functional, cell-based; conditions: HCT-8, 96 h
[3] = test system: A2780; assay: Antiproliferative activity against human A2780 cells after 96 hrs by MTT assay; type: functional, cell-based; conditions: A2780, 96 h
[4] = test system: BGC-823; assay: Antiproliferative activity against human BGC823 cells after 96 hrs by MTT assay; type: functional, cell-based; conditions: BGC-823, 96 h
[5] = test system: Bel-7402; assay: Antiproliferative activity against human Bel7402 cells after 96 hrs by MTT assay; type: functional, cell-based; conditions: Bel-7402, 96 h
[6] = test system: H22; assay: Antitumor activity against mouse H22 cells implanted in Kunming mouse assessed as tumor growth inhibition at 60 mg/kg, ip administered twice relative to control; type: functional; conditions: read-out: TGI
[7] = test system: Mus musculus; assay: Toxicity in Kunming mouse implanted with mouse H22 cell assessed as survival at 40 mg/kg, ip administered on day 1 and day 5; type: organism-based; conditions: in vivo
[8] = test system: Mus musculus; assay: Toxicity in Kunming mouse implanted with mouse H22 cells assessed as body weight at 100 mg/kg, ip administered once (reference value: 31.1 g); type: organism-based; conditions: in vivo
[9] = test system: Mus musculus; assay: Toxicity in Kunming mouse implanted with mouse H22 cells assessed as body weight at 60 mg/kg, ip administered twice (reference value: 31.1 g); type: organism-based; conditions: in vivo
[10] = test system: H22; assay: Antitumor activity against mouse H22 cells implanted in Kunming mouse assessed as tumor growth inhibition at 100 mg/kg, ip administered once relative to control; type: functional; conditions: read-out: TGI
[11] = test system: Mus musculus; assay: Toxicity in Kunming mouse implanted with mouse H22 cells assessed as body weight at 40 mg/kg, ip administered on day 1 and day 5 (reference value: 32.5 g); type: organism-based; conditions: in vivo
[12] = test system: H22; assay: Antitumor activity against mouse H22 cells implanted in Kunming mouse assessed as tumor growth inhibition at 40 mg/kg, ip administered on day 1 and day 5 relative to control relative to control; type: functional; conditions: read-out: TGI
[13] = test system: H22; assay: Antitumor activity against mouse H22 cells implanted in Kunming mouse assessed as tumor growth inhibition at 24 mg/kg, ip administered once in every 3 days totally for 3 times relative to control; type: functional; conditions: 72 h, read-out: TGI
[14] = test system: Mus musculus; assay: Toxicity in Kunming mouse implanted with mouse H22 cells assessed as body weight at 24 mg/kg, ip administered once in every three days totally for 3 times (reference value: 32.5 g); type: organism-based; conditions: in vivo
[15] = test system: H22; assay: Antitumor activity against mouse H22 cells implanted in Kunming mouse assessed as tumor growth inhibition at 100 mg/kg, ip administered twice relative to control; conditions: read-out: TGI

## CC[C@@]1(OC(=O)Cn2cc(I)c(=O)[nH]c2=O)C(=O)OCc2c1cc1n(c2=O)Cc2cc3c([N+](=O)[O-])cccc3nc2-1
[1]
  IC50: 117 nM
[2]
  IC50: 14 nM
[3]
  IC50: 200 nM
[4]
  IC50: 16 nM
[5]
  IC50: 13 nM

## CCc1c2c(nc3ccccc13)-c1cc3c(c(=O)n1C2)COC(=O)[C@@]3(CC)OC(=O)Cn1cc(I)c(=O)[nH]c1=O
[1]
  IC50: 710 nM
[2]
  IC50: 586 nM
[3]
  IC50: 669 nM
[4]
  IC50: 2570 nM
[5]
  IC50: 4510 nM

## CCc1c2c(nc3ccccc13)-c1cc3c(c(=O)n1C2)COC(=O)[C@@]3(CC)OC(=O)Cn1cc(Cl)c(=O)[nH]c1=O
[1]
  IC50: 38 nM
[6]
  inhibition in vivo at 60 mg/kg: 76.6%
[7]
  Activity: Non-Toxic
[2]
  IC50: 2 nM
[8]
  Activity: 25.2 g
[9]
  Activity: 26.2 g
[10]
  inhibition in vivo at 100 mg/kg: 58.7%
[3]
  IC50: 670 nM
[4]
  IC50: 17 nM
[11]
  Activity: 27 g
[5]
  IC50: 12 nM
[12]
  inhibition in vivo at 40 mg/kg: 46.2%

## CC(=O)O[C@H]1C(=O)[C@@]2(C)[C@H]([C@H](OC(=O)c3ccccc3)[C@]3(O)C[C@H](OC(=O)[C@H](O)[C@@H](NC(=O)c4ccccc4)c4ccccc4)C(C)=C1C3(C)C)[C@]1(OC(C)=O)CO[C@@H]1C[C@@H]2O [PACLITAXEL]
[13]
  inhibition in vivo at 24 mg/kg: 73.8%
[14]
  Activity: 18.9 g

## CC[C@@]1(OC(=O)Cn2cc(Cl)c(=O)[nH]c2=O)C(=O)OCc2c1cc1n(c2=O)Cc2cc3ccccc3nc2-1
[1]
  IC50: 54 nM
[2]
  IC50: 13 nM
[3]
  IC50: 110 nM
[4]
  IC50: 16 nM
[5]
  IC50: 17 nM

## CC[C@@]1(OC(=O)Cn2cc(F)c(=O)[nH]c2=O)C(=O)OCc2c1cc1n(c2=O)Cc2cc3ccccc3nc2-1
[1]
  IC50: 126 nM
[2]
  IC50: 109 nM
[3]
  IC50: 68 nM
[4]
  IC50: 64 nM
[5]
  IC50: 86 nM

## CC[C@@]1(O)C(=O)OCc2c1cc1n(c2=O)Cc2cc3ccccc3nc2-1 [CAMPTOTHECIN]
[1]
  IC50: 6 nM
[2]
  IC50: 24 nM
[3]
  IC50: 29 nM
[4]
  IC50: 57 nM
[5]
  IC50: 14 nM

## CC[C@@]1(OC(=O)Cn2cc(F)c(=O)[nH]c2=O)C(=O)OCc2c1cc1n(c2=O)Cc2cc3c([N+](=O)[O-])cccc3nc2-1
[1]
  IC50: 81 nM
[2]
  IC50: 13 nM
[3]
  IC50: 115 nM
[4]
  IC50: 17 nM
[5]
  IC50: 16 nM

## CCc1c2c(nc3ccccc13)-c1cc3c(c(=O)n1C2)COC(=O)[C@@]3(CC)OC(=O)Cn1ccc(=O)[nH]c1=O
[1]
  IC50: 65 nM
[2]
  IC50: 2 nM
[3]
  IC50: 86 nM
[4]
  IC50: 17 nM
[5]
  IC50: 14 nM

## O=P1(N(CCCl)CCCl)NCCCO1 (stereo not given) [CYCLOPHOSPHAMIDE ANHYDROUS]
[15]
  inhibition in vivo at 100 mg/kg: 93.7%
